Series [1] deals with coronary vasospasm model (lysine-vasopressin). Kind of series: Effects on coronary vasospasm model (lysine-vasopressin test), inhibition of ST-segment elevation. The format is in vivo, male Wistar rats. The settings on record: Rattus norvegicus, po, 30 min before anesthetization; lysine-vasopressin 0.3 I.U./kg iv; MED = minimum dose with depression rate of 20% or higher; read-out: Coronary vasoconstriction model MED p.o.

Another series deals with male dd-mice. Briefly: Acute toxicity. The settings on record: mouse, in vivo, 10080 min; for MLD i.p.: ip; for MLD p.o.: po. As to the method:
The compounds were orally administered and intraperitoneally administered to male dd-mice weighing 20 to 25 g. […] was determined by observing the mortality for seven days after the administration.

Counter-ions that a name gives are not always drawn. Where only a bound is given, the exact number is not on record here.

`O=[N+]([O-])O[C@H]1CO[C@H]2[C@@H]1OC[C@@H]2N1CCN(CCCSc2ccncc2)CC1` [Compound 12, 5-Deoxy-5-[4-[3-(pyridin-4-ylthio)propyl]piperazin-1-yl]-1.4;3.6-dianhydro-L-iditol 2-nitrate hydrochloride]: in series [1], the minimal effective dose was less than 30 mg/kg. Besides, in the series with male dd-mice, the MLD i.p. was greater than 100 mg/kg and the MLD p.o. is given as greater than 300 mg/kg.

In the case of `O=[N+]([O-])O[C@H]1CO[C@H]2[C@@H]1OC[C@@H]2N1CCN(CCCn2ccc3ccccc32)CC1` [Compound 27, 5-Deoxy-5-[4-[3-(indol-1-yl)propyl]piperazin-1-yl]-1.4;3.6-dianhydro-L-iditol 2-nitrate hydrochloride], in series [1], the minimal effective dose was less than 30 mg/kg. In the series on male dd-mice, this compound returned an MLD i.p. greater than 100 mg/kg and an MLD p.o. greater than 300 mg/kg.

As for `Cc1ccc(C(=O)N2CCN([C@H]3CO[C@H]4[C@@H]3OC[C@@H]4O[N+](=O)[O-])CC2)cn1` [Compound 93, 5-Deoxy-5-[4-(6-methylpyridin-3-yl)carbonylpiperazin-1-yl]-1.4;3.6-dianhydro-L-iditol 2-nitrate hydrochloride], the minimal effective dose in series [1] is less than 30 mg/kg. In the series with male dd-mice, this compound registered an MLD i.p. greater than 100 mg/kg and an MLD p.o. greater than 300 mg/kg.

With `O=[N+]([O-])O[C@H]1CO[C@H]2[C@@H]1OC[C@@H]2N1CCN(c2nc3ccccc3[nH]2)CC1` [Compound 76, 5-[4-(Benzimidazol-2-yl)piperazin-1-yl]-5-deoxy-1.4;3.6-dianhydro-L-iditol 2-nitrate hydrochloride], the minimal effective dose in series [1] is less than 30 mg/kg. In the series with male dd-mice, this compound registered an MLD i.p. greater than 100 mg/kg and an MLD p.o. greater than 300 mg/kg.

Consider `COc1ccc(C(=O)N2CCN([C@H]3CO[C@H]4[C@@H]3OC[C@@H]4O[N+](=O)[O-])CC2)c(OC)c1OC` [Compound 87, 5-Deoxy-5-[4-(2,3,4-trimethoxybenzoyl)piperazin-1-yl]-1.4;3.6-dianhydro-L-iditol 2-nitratehydrochloride], for which, in series [1], the minimal effective dose is less than 30 mg/kg. Also, in the series on male dd-mice, the MLD i.p. is greater than 100 mg/kg and the MLD p.o. is greater than 300 mg/kg.

The values are drawn from patent US5053408A, “Hexitol derivatives having vasodilative activity” (Kyowa Hakko Kogyo Co., Ltd., priority 1989, dated 1991).
